Values quoted from earlier work, collected in US7670617B2, “Sequential drug delivery systems” (CIMA Labs Inc., priority 2001, dated 2010).

Details: not given

SMILES	pKa
CC(C)C[C@H]1C(=O)N2CCC[C@H]2[C@]2(O)O[C@](NC(=O)[C@@H]3C=C4c5cccc6[nH]c(Br)c(c56)C[C@H]4N(C)C3)(C(C)C)C(=O)N12 [Bromocriptine]	4.9
CC(C)(C)NC(=O)[C@@H]1C[C@@H]2CCCC[C@@H]2CN1C[C@@H](O)[C@H](Cc1ccccc1)NC(=O)[C@H](CC(N)=O)NC(=O)c1ccc2ccccc2n1 [Saquinavir]	7
CN1CCc2cccc3c2[C@H]1Cc1ccc(O)c(O)c1-3 [Apomorphine]	7

Details: Nasal Spray

SMILES	BIOAVAILABILITY (%)
O=C(O)C(O)C(O)C(=O)O.Oc1ccc2c(c1)[C@@]13CCCC[C@@]1(O)[C@@H](C2)N(CC1CCC1)CC3 [Butorphanol Tartrate]	60%-70%

Same assay, conditions: in vivo

SMILES	BIOAVAILABILITY (%)
CC(C)C[C@H]1C(=O)N2CCC[C@H]2[C@]2(O)O[C@](NC(=O)[C@@H]3C=C4c5cccc6[nH]c(Br)c(c56)C[C@H]4N(C)C3)(C(C)C)C(=O)N12 [Bromocriptine]	28%
CCOC(=O)[C@H](CCc1ccccc1)N[C@@H](C)C(=O)N1Cc2cc(OC)c(OC)cc2C[C@H]1C(=O)O [Moexipril]	13%
Cc1nccn1CC1CCc2c(c3ccccc3n2C)C1=O.Cl (centres unmarked) [Ondansetron:HCI]	55%
COc1cc2nc(N3CCN(C(=O)C4COc5ccccc5O4)CC3)nc(N)c2cc1OC (centres unmarked) [Doxazosin]	65%
CN1CCCC1c1cccnc1 (centres unmarked) [Nicotine]	16.7 (±8.6%)
Oc1ccc2c3c1O[C@H]1[C@@H](O)CC[C@@]4(O)[C@@H](C2)N(CC2CCC2)CC[C@]314 [Nalbuphine]	16 (±8) %
CC(CCc1ccccc1)NCC(O)c1ccc(O)c(C(N)=O)c1 (centres unmarked) [Labetalol]	18 ± 5%
CCOC(=O)[C@H](CCc1ccccc1)N[C@@H](C)C(=O)N1Cc2ccccc2C[C@H]1C(=O)O.Cl [Quinapril•HCI]	60%
CC(C)(C)NC(=O)[C@H]1CC[C@H]2[C@@H]3CC[C@H]4NC(=O)C=C[C@]4(C)[C@H]3CC[C@]12C [Finasteride]	63%
CN(C)CCC=C1c2ccccc2COc2ccccc21 [Doxepin]	27 ± 10%
COc1ccccc1OCCNCC(O)COc1cccc2[nH]c3ccccc3c12 (centres unmarked) [Carvedilol]	25-35%
CC(C)(C)NCC(O)c1cc(O)cc(O)c1 (centres unmarked) [Terbutaline sulphate]	30-70%
CCOC(=O)[C@H](CCc1ccccc1)N[C@H]1CCc2ccccc2N(CC(=O)O)C1=O.Cl [Benazepril:HCI]	37%
CC(C)NCC(O)COc1cccc2ccccc12.Cl (centres unmarked) [Propranolol:HCI]	26%
CCOC(=O)[C@H](CCc1ccccc1)N[C@@H](C)C(=O)N1CCC[C@H]1C(=O)O [Enalapril]	41-60%

Details: in animals

SMILES	BIOAVAILABILITY (%)
CC(NC(C)(C)C)C(=O)c1cccc(Cl)c1.Cl (centres unmarked) [Bupropion:HCI]	5%-20%
